From patent US20100056524A1, “Compound” (priority 2008, published 2010)
Where a name gives a salt, the structure may show the parent alone. Read-outs that look alike come from different tables or passages of the source.

What was measured:
Format in all cases: biochemical
P38b MAPK = molecular target: T1, P38b MAPK (Homo sapiens, UniProt Q15759); test: P38b MAPK protein kinase assay; settings: for remaining activity at 10 µM: 10 μM compound; for residual kinase activity P38b MAPK: 1 μm compound; for remaining activity at 1 µM: 1 μM compound
T1 construct: All protein kinases were of human origin and encoded full length proteins, unless indicated otherwise; made in house
T1 sequence (Q15759 whole entry): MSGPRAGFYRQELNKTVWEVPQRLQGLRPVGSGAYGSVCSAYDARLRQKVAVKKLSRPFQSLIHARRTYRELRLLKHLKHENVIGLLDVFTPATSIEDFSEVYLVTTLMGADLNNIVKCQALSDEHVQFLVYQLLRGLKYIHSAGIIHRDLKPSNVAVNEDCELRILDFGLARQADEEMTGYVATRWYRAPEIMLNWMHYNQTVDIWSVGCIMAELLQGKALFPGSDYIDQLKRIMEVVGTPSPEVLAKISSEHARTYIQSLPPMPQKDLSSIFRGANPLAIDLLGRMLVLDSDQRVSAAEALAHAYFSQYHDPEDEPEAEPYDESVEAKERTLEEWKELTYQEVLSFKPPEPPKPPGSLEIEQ
Source text: (§1) All protein kinases were of human origin and encoded full length proteins, unless indicated otherwise. They were either expressed as glutathione S-transferase (GST) fusion proteins in Escherichia Coli or as hexahistidine (His6)-tagged proteins in insect Sf21 cells. GST fusion proteins were purified by affinity chromatography on glutathione-Sepharose, and His6-tagged proteins on nickel/nitriloacetate-agarose. The procedures for expressing some of the protein kinases used herein have been detailed previously.^8,9 The following sections outline the DNA vectors synthesised and the procedures used to express and purifying protein kinases that have not been reported previously.
(§2) All assays (25.5 μl) were carried out at room temperature (21° C.) and were linear with respect to time and enzyme concentration under the conditions used. Assays were performed for 30 min using Multidrop Micro reagent dispensers (Thermo Electron Corporation, Waltham, Mass. 02454, USA) in a 96-well format. The concentration of magnesium acetate in the assays was 10 mM and the [γ-33P] ATP (800 cpm/pmol) was used at 5, 20 or 50 μM as indicated, in order to be at or below the Km for ATP for each enzyme. Protein kinases assayed at 5 μM ATP were: —ERK1, ERK8, PKBα, MARK3, Aurora C. Protein kinases assayed at 20 μM ATP were: —JNK1, PDK1, CHK1, CHK2, CDK2 and Aurora B. Protein kinases assayed at 50 μM ATP were: —MNK2, IKKepsilon and TBK1.
(§3) The assays were initiated with MgATP, stopped by addition of 5 μl of 0.5 M orthophosphoric acid and spotted on to P81 filterplates using a unifilter harvester (PerkinElmer, Boston, Mass. 02118, USA). The IC50 values of inhibitors were determined after carrying out assays at 10 different concentrations of each compound.
(§4) Unless stated otherwise, enzymes were diluted in 50 mM Tris/HCl pH 7.5, 0.1 mM EGTA, 1 mg/ml BSA, 0.1% (v/v) 2-mercaptoethanol and assayed in 50 mM Tris/HCl pH 7.5, 0.1 mM EGTA, 0.1% (v/v) 2-mercaptoethanol.

MNK2 = molecular target: T2, MNK2 (Homo sapiens, UniProt Q9HBH9); test: MNK2 protein kinase assay; settings: for remaining activity at 10 µM: 10 μM compound; for residual kinase activity MNK2: 1 μm compound; for remaining activity at 1 µM: 1 μM compound
T2 construct: All protein kinases were of human origin and encoded full length proteins, unless indicated otherwise; GST; made in house; host or cells: E. coli
T2 sequence (Q9HBH9 whole entry): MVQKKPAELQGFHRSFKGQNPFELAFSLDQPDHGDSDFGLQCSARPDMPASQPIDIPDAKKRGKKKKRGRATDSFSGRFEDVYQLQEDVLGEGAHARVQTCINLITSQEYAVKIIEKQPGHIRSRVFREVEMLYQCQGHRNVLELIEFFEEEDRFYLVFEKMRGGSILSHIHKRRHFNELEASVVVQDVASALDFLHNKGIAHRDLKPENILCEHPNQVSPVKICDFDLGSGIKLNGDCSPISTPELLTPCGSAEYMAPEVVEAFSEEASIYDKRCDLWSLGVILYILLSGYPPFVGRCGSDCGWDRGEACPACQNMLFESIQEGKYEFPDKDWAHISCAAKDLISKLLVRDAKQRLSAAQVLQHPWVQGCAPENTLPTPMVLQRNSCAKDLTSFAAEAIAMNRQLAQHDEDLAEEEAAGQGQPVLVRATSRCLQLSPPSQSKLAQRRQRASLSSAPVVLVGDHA
Source text: as §1
The following proteins were expressed in E. coli: —CHK2[5-543], cyclin-dependent protein kinase 2 (CDK2), MAP kinase-interacting kinase 2 (MNK2), extra-cellular signal-regulated kinase 1 (ERK1).
(§5) In order to produce activated forms of Aurora B and Aurora C, insect Sf21 cells were incubated for 1 h with the protein phosphatase inhibitor okadaic acid (50 nM). JNK isoforms were activated with MKK4 and MKK7, MNK2 with p38α MAPkinase; PKBα, PKBβ, with PDK1, and ERK1 with MKK1. To activate CDK2, bacterial pellets expressing cyclin A2 and CDK2 were mixed together, lyse and purified on glutathione Sepharose. The GST-tags were removed by cleavage with PreScission protease and the CDK2-cyclin A2 complex purified by chromatography on SP-Sepharose. It was then activated with CAK1/CDK7 followed by chromatography on nickel-nitrilotriacetate agarose to remove CAK1/CDK7, which binds to this column by virtue of its C-terminal His6 tag. All the other protein kinases were active as expressed.
as §2, §3
(§6) ERK1 and ERK8 were both assayed against myelin basic protein (MBP, 0.33 mg/ml). MARK3 was assayed against the peptide […] (300 μM), MNK2 against the eIF4E protein (0.5 mg/ml). PKBβ was assayed against the peptide […] (30 μM). TBK1 were assayed against ([…]) (300 μM). The substrates used for other protein kinases were described previously.^8,9
as §4

MELK = molecular target: T3, MELK (Homo sapiens, UniProt Q14680); test: MELK protein kinase assay; settings: for remaining activity at 10 µM: 10 μM compound; for residual kinase activity MELK: 1 μm compound; for remaining activity at 1 µM: 1 μM compound
T3 construct: All protein kinases were of human origin and encoded full length proteins, unless indicated otherwise; made in house
T3 sequence (Q14680 whole entry): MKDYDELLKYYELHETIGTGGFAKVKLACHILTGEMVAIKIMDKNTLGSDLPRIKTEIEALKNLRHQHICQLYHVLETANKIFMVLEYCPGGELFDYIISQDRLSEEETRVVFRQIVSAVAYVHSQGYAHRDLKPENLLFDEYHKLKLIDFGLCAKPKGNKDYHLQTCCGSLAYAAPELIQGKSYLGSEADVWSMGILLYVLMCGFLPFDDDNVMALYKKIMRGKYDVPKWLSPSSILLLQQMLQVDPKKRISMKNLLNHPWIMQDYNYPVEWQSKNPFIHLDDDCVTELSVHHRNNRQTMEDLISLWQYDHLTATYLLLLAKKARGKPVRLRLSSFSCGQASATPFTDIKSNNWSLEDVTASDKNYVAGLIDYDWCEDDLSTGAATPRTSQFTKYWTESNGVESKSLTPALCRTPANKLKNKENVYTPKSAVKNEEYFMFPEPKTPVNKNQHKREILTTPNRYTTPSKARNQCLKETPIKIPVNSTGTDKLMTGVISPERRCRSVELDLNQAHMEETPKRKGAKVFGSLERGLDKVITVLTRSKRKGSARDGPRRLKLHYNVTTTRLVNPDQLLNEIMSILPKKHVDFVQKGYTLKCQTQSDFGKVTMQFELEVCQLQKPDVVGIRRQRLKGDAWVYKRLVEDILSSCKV
Source text: as §1, §2, §3, §4

MARK3 = molecular target: T4, MARK3 (Homo sapiens, UniProt P27448); test: MARK3 protein kinase assay; settings: for remaining activity at 10 µM: 10 μM compound; for residual kinase activity MARK3: 1 μm compound; for remaining activity at 1 µM: 1 μM compound
T4 construct: All protein kinases were of human origin and encoded full length proteins, unless indicated otherwise; His6; made in house; host or cells: Sf21 insect cells
T4 sequence (P27448 whole entry): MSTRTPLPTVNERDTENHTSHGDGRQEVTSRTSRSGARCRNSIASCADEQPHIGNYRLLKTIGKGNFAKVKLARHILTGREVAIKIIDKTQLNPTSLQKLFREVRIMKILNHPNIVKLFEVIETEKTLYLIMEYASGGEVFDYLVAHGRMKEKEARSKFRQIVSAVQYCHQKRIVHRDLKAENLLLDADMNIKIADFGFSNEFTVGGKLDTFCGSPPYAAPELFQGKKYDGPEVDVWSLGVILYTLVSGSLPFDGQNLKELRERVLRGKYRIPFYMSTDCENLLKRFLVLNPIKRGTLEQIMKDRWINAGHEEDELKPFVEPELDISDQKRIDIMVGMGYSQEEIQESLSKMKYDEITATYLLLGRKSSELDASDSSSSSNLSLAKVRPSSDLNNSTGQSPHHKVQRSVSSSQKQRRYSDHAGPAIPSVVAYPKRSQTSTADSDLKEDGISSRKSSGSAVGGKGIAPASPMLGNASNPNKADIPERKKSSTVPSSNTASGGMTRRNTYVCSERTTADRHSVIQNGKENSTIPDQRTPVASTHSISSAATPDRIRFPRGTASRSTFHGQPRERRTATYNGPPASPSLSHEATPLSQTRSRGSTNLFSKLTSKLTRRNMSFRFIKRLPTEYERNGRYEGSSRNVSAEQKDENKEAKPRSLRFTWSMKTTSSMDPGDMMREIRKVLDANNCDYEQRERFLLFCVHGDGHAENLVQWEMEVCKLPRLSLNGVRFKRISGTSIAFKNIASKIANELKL
Source text: as §1
(§7) The following kinases were expressed in Sf21 cells: Aurora B and Aurora C, extra-cellular signal-regulated kinase 8 (ERK8), microtubule affinity regulating kinase 3 (MARK3), protein kinase Bα[118-480][S473D], protein kinase Bβ (PKBβ[120-481][S474D], 3-phosphoinositide-dependent protein kinase-1 [52-556]
as §2, §3, §6, §4

JNK1 = molecular target: T5, JNK1 (Homo sapiens, UniProt P45983); test: JNK1 protein kinase assay; settings: for remaining activity at 10 µM: 10 μM compound; for residual kinase activity JNK1: 1 μm compound; for remaining activity at 1 µM: 1 μM compound
T5 construct: All protein kinases were of human origin and encoded full length proteins, unless indicated otherwise; made in house
T5 sequence (P45983 1-384 isoform P45983-2): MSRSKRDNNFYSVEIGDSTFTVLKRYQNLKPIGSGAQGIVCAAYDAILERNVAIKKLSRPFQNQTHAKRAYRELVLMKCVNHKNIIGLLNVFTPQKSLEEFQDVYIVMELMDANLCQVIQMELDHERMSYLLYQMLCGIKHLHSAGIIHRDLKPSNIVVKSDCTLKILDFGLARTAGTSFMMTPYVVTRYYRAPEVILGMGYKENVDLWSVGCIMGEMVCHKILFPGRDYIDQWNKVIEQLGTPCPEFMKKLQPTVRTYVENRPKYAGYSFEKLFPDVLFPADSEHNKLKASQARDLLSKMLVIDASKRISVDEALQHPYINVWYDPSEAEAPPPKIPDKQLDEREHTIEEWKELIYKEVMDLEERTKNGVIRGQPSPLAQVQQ
Source text: as §1, §5, §2, §3, §4

ERK2 = molecular target: T6, ERK2 (Homo sapiens, UniProt P28482); test: ERK2 protein kinase assay; settings: for remaining activity at 10 µM: 10 μM compound; for residual kinase activity ERK2: 1 μm compound; for remaining activity at 1 µM: 1 μM compound
T6 construct: All protein kinases were of human origin and encoded full length proteins, unless indicated otherwise; made in house
T6 sequence (P28482 2-360): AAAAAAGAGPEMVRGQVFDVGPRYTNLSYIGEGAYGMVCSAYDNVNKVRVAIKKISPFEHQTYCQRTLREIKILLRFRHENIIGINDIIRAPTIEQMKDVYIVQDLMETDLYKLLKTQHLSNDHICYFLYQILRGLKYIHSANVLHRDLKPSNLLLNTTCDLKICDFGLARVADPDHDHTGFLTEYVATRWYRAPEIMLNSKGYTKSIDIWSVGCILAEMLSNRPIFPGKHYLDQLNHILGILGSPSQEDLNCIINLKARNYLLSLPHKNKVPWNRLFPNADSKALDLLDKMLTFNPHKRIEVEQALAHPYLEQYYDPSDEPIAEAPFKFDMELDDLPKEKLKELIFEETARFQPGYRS
Source text: as §1, §2, §3, §4

DYRK1A = molecular target: T7, DYRK1A (Homo sapiens, UniProt Q13627); test: DYRK1A protein kinase assay; settings: for remaining activity at 10 µM: 10 μM compound; for residual kinase activity DYRK1A: 1 μm compound; for remaining activity at 1 µM: 1 μM compound
T7 construct: All protein kinases were of human origin and encoded full length proteins, unless indicated otherwise; made in house
Source text: as §1, §2, §3, §4

PKBa = molecular target: T8, PKBa (Homo sapiens, UniProt P31749, S473D); test: PKBa protein kinase assay; settings: for remaining activity at 10 µM: 10 μM compound
T8 construct: protein kinase Bα[118-480][S473D]; His6; made in house; host or cells: insect Sf21 cells
T8 sequence (P31749 118-480 S473D): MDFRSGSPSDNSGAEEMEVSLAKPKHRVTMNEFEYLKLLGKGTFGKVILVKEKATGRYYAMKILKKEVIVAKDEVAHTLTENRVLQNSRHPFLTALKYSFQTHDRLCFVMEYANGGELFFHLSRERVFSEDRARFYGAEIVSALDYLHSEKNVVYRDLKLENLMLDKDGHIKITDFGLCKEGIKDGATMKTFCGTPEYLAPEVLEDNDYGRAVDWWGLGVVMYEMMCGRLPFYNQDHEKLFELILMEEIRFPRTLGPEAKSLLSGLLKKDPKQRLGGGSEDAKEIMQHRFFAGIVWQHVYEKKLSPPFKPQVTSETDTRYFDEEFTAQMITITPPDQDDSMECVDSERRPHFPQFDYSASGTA
Source text: as §1, §7, §5, §2, §3, §4

YES1 = molecular target: T9, YES1 (Homo sapiens, UniProt P07947); test: YES1 protein kinase assay; settings: for remaining activity at 10 µM: 10 μM compound; for residual kinase activity YES1: 1 μm compound; for remaining activity at 1 µM: 1 μM compound
T9 construct: All protein kinases were of human origin and encoded full length proteins, unless indicated otherwise; made in house
T9 sequence (P07947 whole entry): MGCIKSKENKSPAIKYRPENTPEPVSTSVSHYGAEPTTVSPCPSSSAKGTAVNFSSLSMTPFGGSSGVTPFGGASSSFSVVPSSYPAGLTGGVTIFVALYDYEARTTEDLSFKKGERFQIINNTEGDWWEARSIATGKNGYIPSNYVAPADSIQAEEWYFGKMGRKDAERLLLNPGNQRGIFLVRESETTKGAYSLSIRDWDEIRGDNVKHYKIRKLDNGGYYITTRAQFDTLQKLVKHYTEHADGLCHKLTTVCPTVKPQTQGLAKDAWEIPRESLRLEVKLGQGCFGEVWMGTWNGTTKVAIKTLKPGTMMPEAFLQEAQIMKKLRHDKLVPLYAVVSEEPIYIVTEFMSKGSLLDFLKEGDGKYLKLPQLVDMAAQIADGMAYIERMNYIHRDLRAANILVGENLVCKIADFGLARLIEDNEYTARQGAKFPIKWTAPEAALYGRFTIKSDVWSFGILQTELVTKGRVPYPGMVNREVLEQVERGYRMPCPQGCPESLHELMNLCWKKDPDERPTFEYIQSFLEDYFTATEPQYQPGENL
Source text: as §1, §2, §3, §4

PIM2 = molecular target: T10, PIM2 (Homo sapiens, UniProt Q9P1W9); test: PIM2 protein kinase assay; settings: for remaining activity at 10 µM: 10 μM compound; for residual kinase activity PIM2: 1 μm compound; for remaining activity at 1 µM: 1 μM compound
T10 construct: All protein kinases were of human origin and encoded full length proteins, unless indicated otherwise; made in house
T10 sequence (Q9P1W9 whole entry): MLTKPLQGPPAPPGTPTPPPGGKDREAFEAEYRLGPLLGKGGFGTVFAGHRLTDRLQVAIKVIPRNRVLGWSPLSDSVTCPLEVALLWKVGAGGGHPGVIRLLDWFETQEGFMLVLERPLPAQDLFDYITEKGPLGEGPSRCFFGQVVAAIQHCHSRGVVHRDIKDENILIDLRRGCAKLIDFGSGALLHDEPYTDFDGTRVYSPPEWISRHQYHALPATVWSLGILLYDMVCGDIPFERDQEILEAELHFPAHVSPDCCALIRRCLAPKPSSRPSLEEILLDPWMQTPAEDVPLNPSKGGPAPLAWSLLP
Source text: as §1, §2, §3, §4

[1] = read-out: residual kinase activity P38b MAPK
[2] = read-out: residual kinase activity MNK2
[3] = read-out: residual kinase activity MELK
[4] = read-out: residual kinase activity MARK3
[5] = read-out: residual kinase activity JNK1
[6] = read-out: residual kinase activity ERK2
[7] = read-out: residual kinase activity DYRK1A
[8] = read-out: residual kinase activity PKBa
[9] = 1 μm compound, read-out: residual kinase activity PKBa
[10] = read-out: residual kinase activity YES1
[11] = read-out: residual kinase activity PIM2
[12] = P38b MAPK, read-out: residual kinase activity
[13] = MNK2, 50 μM ATP, read-out: residual kinase activity
[14] = MELK, read-out: residual kinase activity
[15] = MARK3, 5 μM ATP, read-out: residual kinase activity
[16] = JNK1, 20 μM ATP, read-out: residual kinase activity
[17] = ERK2, read-out: residual kinase activity
[18] = DYRK1A, read-out: residual kinase activity
[19] = PKBa, 1 μM compound, 5 μM ATP, read-out: residual kinase activity
[20] = PKBa, 5 μM ATP, read-out: residual kinase activity
[21] = YES1, read-out: residual kinase activity
[22] = PIM2, read-out: residual kinase activity

Structure (SMILES) | remaining activity at 1 µM (P38b MAPK; [12]) [%] | remaining activity at 10 µM (P38b MAPK; [12]) [%] | remaining activity at 1 µM (MNK2; [13]) [%] | remaining activity at 10 µM (MNK2; [13]) [%] | remaining activity at 1 µM (MELK; [14]) [%] | remaining activity at 10 µM (MELK; [14]) [%] | remaining activity at 1 µM (MARK3; [15]) [%] | remaining activity at 10 µM (MARK3; [15]) [%] | remaining activity at 1 µM (JNK1; [16]) [%] | remaining activity at 10 µM (JNK1; [16]) [%] | remaining activity at 1 µM (ERK2; [17]) [%] | remaining activity at 10 µM (ERK2; [17]) [%] | remaining activity at 1 µM (DYRK1A; [18]) [%] | remaining activity at 10 µM (DYRK1A; [18]) [%] | remaining activity at 1 µM (PKBa; [19]) [%] | remaining activity at 10 µM (PKBa; [20]) [%] | remaining activity at 1 µM (YES1; [21]) [%] | remaining activity at 10 µM (YES1; [21]) [%] | remaining activity at 1 µM (PIM2; [22]) [%] | remaining activity at 10 µM (PIM2; [22]) [%] | other results
O=C(NCCCNc1nc(Nc2cccc(F)c2)ncc1Br)C1CCC1 [Compound A, cyclobutanecarboxylic acid {3-[5-bromo-2-(3-fluoro-phenylamino)-pyrimidin-4-ylamino]-propyl}-amide, reference compound] | – | – | – | – | – | – | – | – | – | – | – | – | – | – | – | – | – | – | – | – | remaining activity at 10 µM (P38b MAPK; [1]): 80%; residual kinase activity P38b MAPK (P38b MAPK): 96%; remaining activity at 10 µM (MNK2; [2]): 7%; residual kinase activity MNK2 (MNK2): 6%; remaining activity at 10 µM (MELK; [3]): 14%; residual kinase activity MELK (MELK): 15%; remaining activity at 10 µM (MARK3; [4]): 2%; residual kinase activity MARK3 (MARK3): 3%; remaining activity at 10 µM (JNK1; [5]): 9%; residual kinase activity JNK1 (JNK1): 46%; remaining activity at 10 µM (ERK2; [6]): 10%; residual kinase activity ERK2 (ERK2): 49%; remaining activity at 10 µM (DYRK1A; [7]): 38%; residual kinase activity DYRK1A (DYRK1A): 74%; remaining activity at 10 µM (PKBa; [8]): 92%; remaining activity at 1 µM (PKBa; [9]): 107%; remaining activity at 10 µM (YES1; [10]): 8%; residual kinase activity YES1 (YES1): 36%; remaining activity at 10 µM (PIM2; [11]): 75%; residual kinase activity PIM2 (PIM2): 90%
O=C(NCCCNc1nc(Nc2cccc(F)c2)ncc1C1CC1)C1CCC1 [Example 23, Cyclobutanecarboxylic acid {3-[5-cyclopropyl-2-(3-fluoro-phenylamino)-pyrimidin-4-ylamino]-propyl}-amide] | 86 | 92 | 39 | 10 | 23 | 3 | 0 | 1 | 91 | 73 | 107 | 108 | 78 | 56 | 100 | 91 | 77 | 22 | 74 | 67 | remaining activity at 10 µM (P38b MAPK; [1]): 92%; residual kinase activity P38b MAPK (P38b MAPK): 86%; remaining activity at 10 µM (MNK2; [2]): 10%; residual kinase activity MNK2 (MNK2): 39%; remaining activity at 10 µM (MELK; [3]): 3%; residual kinase activity MELK (MELK): 23%; remaining activity at 10 µM (MARK3; [4]): 1%; residual kinase activity MARK3 (MARK3): 0%; remaining activity at 10 µM (JNK1; [5]): 73%; residual kinase activity JNK1 (JNK1): 91%; remaining activity at 10 µM (ERK2; [6]): 108%; residual kinase activity ERK2 (ERK2): 107%; remaining activity at 10 µM (DYRK1A; [7]): 56%; residual kinase activity DYRK1A (DYRK1A): 78%; remaining activity at 10 µM (PKBa; [8]): 91%; remaining activity at 1 µM (PKBa; [9]): 100%; remaining activity at 10 µM (YES1; [10]): 22%; residual kinase activity YES1 (YES1): 77%; remaining activity at 10 µM (PIM2; [11]): 67%; residual kinase activity PIM2 (PIM2): 74%
O=C(NCCCNc1nc(Nc2cccc(N3CCCC3=O)c2)ncc1C1CC1)c1cccs1 [Example 47, Thiophene-2-carboxylic acid (3-{5-cyclopropyl-2-[3-(2-oxo-pyrrolidin-1-yl)-phenylamino]-pyrimidin-4-ylamino}-propyl)-amide. Hydrochloride salt] | 99 | 90 | 36 | 16 | 14 | 27 | 15 | 4 | 92 | 86 | 90 | 66 | 84 | 78 | 101 | 90 | 94 | 74 | 101 | 93 | –
O=C(NCCCNc1nc(Nc2cccnc2)ncc1C1CC1)c1cccs1 [Example 50, Thiophene-2-carboxylic acid {3-[5-cyclopropyl-2-(pyridin-3-ylamino)-pyrimidin-4-ylamino]-propyl}-amide] | 99 | 89 | 56 | 21 | 29 | 17 | 13 | 2 | 94 | 87 | 106 | 62 | 88 | 57 | 109 | 97 | 82 | 29 | 100 | 89 | –
